Data published in patent publication US12264156B2, “Compounds and pharmaceutical compositions thereof for the treatment of diseases” (GALAPAGOS NV, priority 2018, dated 2025).
pEC50: −log10 of the molar value.

Assays:
[1] = tested on: LPS-induced TNFα in monocytes; experiment: Monocytes assay: LPS-triggered TNFα (ELISA); type: cell-based, human; conditions: Homo sapiens, Monocyte, 4 h, LPS 200 ng/mL, supernatant after 4 h
Method in brief: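 Human CD14+ monocytes from buffy-coat PBMCs (magnetic bead selection) were seeded at 100 000 cells/well and pretreated with compound for 1 h at 37° C (0.2% DMSO). They were then stimulated with 200 ng/mL LPS for 4 h, and supernatant TNFα was measured by chemiluminescent sandwich ELISA as percent inhibition.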

[2] = tested on: LPS triggered IL-10 secretion in monocytes; experiment: Monocytes assay: LPS-triggered IL-10 (ELISA); type: cell-based, human; conditions: LPS 200 ng/mL, supernatant after 4 h, maximal fold change vs LPS only
Method in brief: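 Human CD14+ monocytes, magnetically isolated from buffy-coat PBMCs, were seeded at 100 000 cells/well and preincubated with compound for 1 h at 37° C (0.2% DMSO). LPS was then added at a final 200 ng/mL for 4 h. Supernatant IL-10 was quantified by chemiluminescent sandwich ELISA against a standard curve.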

Row | Compound | pEC50 [1] | IL-10 FCmax median [2]
1 | COc1cc(-c2cnc3cc(OCC(O)CN4CCOCC4)ccn23)cc(OC(F)F)c1C(=O)NC1CC1 (stereo not shown) [Cpd 330, N-cyclopropyl-2-(difluoromethoxy)-4-[7-(2-hydroxy-3-morpholino-propoxy)imidazo[1,2-a]pyridin-3-yl]-6-methoxy-benzamide] | 6.00 to 7.00 | +++ (>4.5)
2 | COc1cc(-c2cnc3cc(OCCCN4CC5(COC5)C4)ccn23)cc(OC(F)F)c1C(=O)NC1CC1 [compound 273, N-cyclopropyl-2-(difluoromethoxy)-6-methoxy-4-[7-[3-(2-oxa-6-azaspiro[3.3]heptan-6-yl)propoxy]imidazo[1,2-a]pyridin-3-yl]benzamide] | 6.00 to 7.00 | ++ (>1.5-4.5)
3 | COc1cc(-c2cnc3cc(OCCOCCN4CCCCC4)ccn23)cc(OC(F)F)c1C(=O)NC1CC1 [compound 305] | 7.00 to 10.00 | +++ (>4.5)
4 | COc1cc(-c2cnc3cc(OCC4(F)CN(C)C4)ccn23)cc2c1C(=O)N(CC(F)(F)F)CC2 [compound 252, 6-[7-[(3-fluoro-1-methyl-azetidin-3-yl)methoxy]imidazo[1,2-a]pyridin-3-yl]-8-methoxy-2-(2,2,2-trifluoroethyl)-3,4-dihydro isoquinolin-1-one] | 6.00 to 7.00 | +++ (>4.5)
5 | COc1cc(-c2cnc3cc(OCCN4CCOCC4)ccn23)cc2c1C(=O)N(CC(F)F)CC2 [compound 218, 2-(2,2-difluoroethyl)-8-methoxy-6-[7-(2-morpholinoethoxy)imidazo [1,2-a]pyridin-3-yl]-3,4-dihydroisoquinolin-1-one] | 6.00 to 7.00 | +++ (>4.5)

Now from value to molecule, other results behind:

Row | pEC50 [1] | Compound | IL-10 FCmax median [2]
6 | 6.00 to 7.00 | COc1cc(-c2cnc3cc(OC[C@H]4COCCO4)ccn23)cc2c1C(=O)N(CC(F)F)CC2 [compound 219, 2-(2,2-difluoroethyl)-6-[7-[[(2R)-1,4-dioxan-2-yl]methoxy]imidazo[1,2-a]pyridin-3-yl]-8-methoxy-3,4-dihydroisoquinolin-1-one] | +++ (>4.5)
7 | 7.00 to 10.00 | COc1cc(-c2cnc3cc(OCCCN4CCS(=O)(=O)CC4)ccn23)cc(OC(F)F)c1C(=O)NC1CC1 [Cpd 331, N-cyclopropyl-2-(difluoromethoxy)-4-[7-[3-(1,1-dioxo-1,4-thiazinan-4-yl)propoxy]imidazo[1,2-a]pyridin-3-yl]-6-methoxy-benzamide] | +++ (>4.5)
8 | 7.00 to 10.00 | COc1cc(-c2cnc3cc(OCC(O)CN4CCCCC4)ccn23)cc(OC(F)F)c1C(=O)NC1CC1 (stereo not shown) [Cpd 321, N-cyclopropyl-2-(difluoromethoxy)-4-[7-[2-hydroxy-3-(1-piperidyl)propoxy]imidazo [1,2-a]pyridin-3-yl]-6-methoxy-benzamide] | +++ (>4.5)
